Source: patent publication US20120125325A1, “THE USE OF AMLEXANOX IN THE THERAPY OF NEUTROPHIL-DRIVEN DISEASES” (priority 2009, published 2012)

How the values were obtained:
[1] = tested on: LPS-induced neutrophilia in the airways of mice; assay: LPS-induced airway neutrophilia in mice, inhaled (intra-tracheal) dosing (Example 2); conditions: for piloerection following LPS aerosol exposure: also seen in vehicle treated animals; for tolerance of dosing: mouse, in vivo
Method: • n=8 • Group 1—sham • Group 2—vehicle (10% DMSO) • Group 3—amlexanox (0.3 mg/mL) • Group 4—amlexanox (3 mg/mL) • Group 5—amlexanox (10 mg/mL) • Group 6—amlexanox (15 mg/mL) • Group 7—salbutamol (1 mg/mL) • Group 8—amlexanox (0.3 mg/mL)+salbutamol (1 mg/mL) • Group 9—amlexanox (3 mg/mL)+salbutamol (1 mg/mL) • Group 10—dexamethasone (1.0 mg/mL) • Group 11—fluticasone (1.0 mg/mL) • N.B. All test compounds to be administered by intra-tracheal dosing (using a PennCentury device) 1 hour before endotoxin exposure.
Non-fasted mice were weighed, individually identified on the tail with a permanent marker and administered by intra tracheal administration with doses of either vehicle, amlexanox, fluticasone, dexamethasone or salbutamol at time point T=−1 with respect to the start of LPS treatment (see above for group details). At T=0, mice were placed into an exposure chamber and exposed to LPS. The LPS was prepared in a solution of 0.5 mg/ml and aerosolised using a De Vibliss ultrasonic nebuliser 2000, so that 7 ml of the solution was aerosolised during the 30 min exposure period.
8 hours after LPS challenge the trachea was cannulated and BALF extracted. The procedure for this involved infusing and withdrawing 1 mL of PBS into the lungs via a tracheal catheter. This procedure was repeated to give a yield of approximately 2 mL lavage fluid. The BALF was aliquoted for analysis of neutrophilia and the remaining BALF stored at −80° C. for future cytokine analysis if required.
Total and differential white cell counts in the BAL fluid samples were measured using a Neubaur haemocytometer. Cytospin smears of the BAL fluid samples were prepared by centrifugation at 1200 rpm for 1 min at room temperature and stained using a DiffQuik stain system (Dade Behring).
Cells were counted blind using oil immersion microscopy.
Data were reported as total and differential number of cells per mL of BALF, mean±S.E.M. (standard error of the mean).
Inter-group deviations were statistically analysed by a one-way analysis of variance (ANOVA). In the case of significant difference in the mean values among the different levels of treatment, comparisons versus the vehicle group were carried out using the Dunnett's test. In case the equal variance test fails, a Kruskal-Wallis one-way analysis of variance on ranks followed by a Dunn's test were used. p<0.05 will be considered statistically significant.
Test compounds were administered in a dose volume of 20 μL using a FMJ-250 PennCentury device for intra-tracheal dosing.

[2] = tested on: LPS-induced neutrophilia in the airways of mice; assay: LPS-induced airway neutrophilia in mice, oral amlexanox (Example 1); format: in vivo; conditions: amlexanox 1-30 mg/kg p.o. 1 hour before LPS aerosol, BALF 8 hours after LPS
Method: • n=8 • Group 1—sham (control) • Group 2—Vehicle (10% DMSO, p.o.) • Group 3—amlexanox (1 mg/kg, p.o.) • Group 4—amlexanox (3 mg/kg, p.o.) • Group 5—amlexanox (10 mg/kg, p.o.) • Group 6—amlexanox (30 mg/kg, p.o.) • Group 7—dexamethasone (1 mg/ml) • p.o.=per orus (orally)
N.B. All test compounds were administered via oral gavage using a ball tipped stainless steel delivery cannulae or via intra-tracheal dosing (using a PennCentury devise). In all cases this was 1 hour before endotoxin exposure.
In all cases the cells were counted blind using oil immersion microscopy.
Amlexanox dosed via oral gavage was administered in a dose volume of 0.1 ml using a ball tipped stainless steel delivery cannule.

leukotriene B4 = conditions: Taniguchi et al, 1990, and Kimishoto et al, 2006; cited from earlier work

Row | Structure (SMILES) | piloerection following LPS aerosol exposure ([1]; mice) | tolerance of dosing [1] | inhibition of LPS-induced neutrophilia (cells in bronchoalveolar lavage fluid, FIG. 1) [2] | inhibition of neutrophilia (total cells and neutrophils in bronchoalveolar lavage fluid, FIGS. 2 to 6) ([1]; mice, amlexanox 0.3-15 mg/mL, 20 μL intra-tracheal 1 hour before LPS aerosol, BALF 8 hours after LPS) | effect as a bronchodilator (Bronchodilator effect) | LTB4 production (leukotriene B4)
1 | C[C@@H]1C[C@H]2[C@@H]3C[C@H](F)C4=CC(=O)C=C[C@]4(C)[C@@]3(F)[C@@H](O)C[C@]2(C)[C@@]1(O)C(=O)SCF [fluticasone] | noticeable degree of piloerection | good tolerance of dosing |  |  |  | 
2 | CC(C)(C)NCC(O)c1ccc(O)c(CO)c1 (stereo not drawn) [salbutamol] | noticeable degree of piloerection | good tolerance of dosing |  |  |  | 
3 | C[C@@H]1C[C@H]2[C@@H]3CCC4=CC(=O)C=C[C@]4(C)[C@@]3(F)[C@@H](O)C[C@]2(C)[C@@]1(O)C(=O)CO [dexamethasone] | noticeable degree of piloerection | good tolerance of dosing |  |  |  | 
4 | CC(C)c1ccc2oc3nc(N)c(C(=O)O)cc3c(=O)c2c1 [amlexanox] | noticeable degree of piloerection | good tolerance of dosing | effective at inhibiting LPS-induced neutrophilia | inhibits neutrophilia | little or no effect as a bronchodilator | increase LTB4 production
